Test results published in patent EP4671240A1, “SALT CONTAINING AROMATIC RING DERIVATIVE ANTAGONIST, PREPARATION METHOD THEREFOR, AND APPLICATION THEREOF” (Jiangsu Hansoh Pharmaceutical Group Co., Ltd., priority 2023, dated 2024).

What was measured:
[1] = Rat pharmacokinetic evaluation assay (oral); type: in vivo; details: male, SD rats, p.o. 5 mg/kg, plasma; for MRT inf: read-out: MRT 0-∞
Description: 6. Experimental conclusion: It can be seen from the data in the table that the example compounds shown in the present invention show good antagonistic effects in the experiment of the effect on calcium current in cells stably expressing ETA receptors. 2. Rat pharmacokinetic evaluation assay 1. Study objective: SD rats were used as test animals to study the pharmacokinetic behaviour of the compounds of the present invention in rat (plasma) after oral administration at a dose of 5 mg/kg. 2. Experimental scheme: • 2.1 Experimental drugs: The example compounds of the present invention, made in house. • 2.2 Experimental animals: 3 SD rats/group, male, from Shanghai Jiesijie Experimental Animal Co., Ltd., animal production license number (SCXK (Shanghai) 2013-0006 N0.311620400001794). 2.3 Preparation formulation: 0.5% CMC-Na (1% Tween80) was dissolved by ultrasonication, and formulated into a clear solution or homogeneous suspension. 2.4 Administration: • p.o. respectively after the rats were fasted overnight; • the p.o. dose was 5 mg/kg and the administration volume was 10 mL/kg. 2.5 Sample collection: After oral administration of rats, 0.2 mL of blood was collected from the jugular vein at 0.25 h, 0.5 h, 1.0 h, 2.0 h, and 4.0 h, placed in an EDTA-2K test tube, and centrifuged at 6000 rpm for 6 min at 4°C to separate plasma which was stored at - 80°C; the animals were fed 4 h after administration. 2.6 Sample treatment: • 1) Acetonitrile (160 µL) was added to plasma sample (40 µL) for precipitation, and the mixture was centrifuged at 3500 × g for 5-20 min. • 2) The treated supernatant solution was taken and subjected to LC/MS/MS to analyse the concentrations of the test compound. LC/MS/MS analysis instrument: AB Sciex API 4000 Qtrap. 2.7 Liquid phase analysis: • Liquid phase conditions: Shimadzu LC-20AD pump • Chromatographic column: Agilent ZORBAX XDB-C18 (50×2.1 mm, 3.5 µm), mobile phase: liquid A: 0.1% formic acid in water, liquid B: acetonitrile • Flow rate: 0.4 mL/min • Elution time: 0-4.0 min, the eluent was as follows:
The main pharmacokinetic parameters were calculated using WinNonlin 6.1. The results of pharmacokinetic experiments in rats are as shown in Table 13 below: Table 13: Pharmacokinetic parameters of the compounds of the present invention in rats after oral administration

CYP450 1A2 = target: T1, CYP450 1A2 (Homo sapiens, UniProt P05177); test: CYP enzyme single-point inhibition assay, 1A2; type: in vitro ADME; details: human liver microsomes, single-point method
T1 construct: Human liver microsome incubation system was used; from tissue; host or cells: human liver microsomes
T1 sequence (P05177 1-516): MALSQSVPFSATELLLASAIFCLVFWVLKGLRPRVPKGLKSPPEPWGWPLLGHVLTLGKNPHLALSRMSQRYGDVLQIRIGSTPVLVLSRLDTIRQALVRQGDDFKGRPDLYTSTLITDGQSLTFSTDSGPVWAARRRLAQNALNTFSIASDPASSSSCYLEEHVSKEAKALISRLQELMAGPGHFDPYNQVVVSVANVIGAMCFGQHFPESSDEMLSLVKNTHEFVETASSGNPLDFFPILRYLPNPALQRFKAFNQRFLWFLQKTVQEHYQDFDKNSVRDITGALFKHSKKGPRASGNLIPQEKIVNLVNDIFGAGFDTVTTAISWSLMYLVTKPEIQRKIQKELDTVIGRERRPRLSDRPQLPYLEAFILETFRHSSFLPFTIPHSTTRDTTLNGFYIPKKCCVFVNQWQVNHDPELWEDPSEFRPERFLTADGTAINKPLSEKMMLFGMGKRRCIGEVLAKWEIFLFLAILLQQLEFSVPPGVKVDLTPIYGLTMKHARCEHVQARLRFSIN
Description: (§1) Human liver microsome incubation system was used, and the single-point method was used to quickly predict the inhibition on CYP450 enzyme subtypes (1A2, 2C19, 2D6, 3A4-M, and 3A4-T) by compounds.
(§2) For 2.5 mM NADPH, 4.165 mg of NADPH (reduced nicotinamide adenine dinucleotide phosphate) was weighed and 100 mM phosphate buffer was added to a final volume of 2 mL. For 0.25 mg/mL microsomes, 50 µL of 20 mg/mL microsomes was mixed with […] of 100 mM phosphate buffer evenly.
(§3) The test example compounds were weighed, diluted to 10 mM with DMSO, and then diluted to 100 µM with 100 mM phosphate buffer.
(§4) • 1. Liver microsomes (40 µL), substrate (10 µL), and test compound (10 µL) were added to a 96-well plate, and the mixture was pre-incubated for 3 min. • 2. NADPH (40 µL) was added. • 3. At 20 min, acetonitrile stop solution containing internal standard (300 µL) was added. • 4. The mixture was centrifuged and the sample was loaded.

CYP450 2C19 = target: T2, CYP450 2C19 (Homo sapiens, UniProt P33261); test: CYP enzyme single-point inhibition assay, 2C19; type: in vitro ADME; details: human liver microsomes, single-point method
T2 construct: Human liver microsome incubation system was used; from tissue; host or cells: human liver microsomes
Description: as §1, §2, §3, §4

CYP450 3A4-M = target: T3, CYP450 3A4-M (Homo sapiens, UniProt P08684); test: CYP enzyme single-point inhibition assay, 3A4-M; type: in vitro ADME; details: human liver microsomes, single-point method
T3 construct: Human liver microsome incubation system was used; from tissue; host or cells: human liver microsomes
Description: as §1, §2, §3, §4

CYP450 3A4-T = target: T4, CYP450 3A4-T (Homo sapiens, UniProt P08684); test: CYP enzyme single-point inhibition assay, 3A4-T; type: in vitro ADME; details: human liver microsomes, single-point method
T4 construct: Human liver microsome incubation system was used; from tissue; host or cells: human liver microsomes
Description: as §1, §2, §3, §4

T4 sequence (P08684 whole entry): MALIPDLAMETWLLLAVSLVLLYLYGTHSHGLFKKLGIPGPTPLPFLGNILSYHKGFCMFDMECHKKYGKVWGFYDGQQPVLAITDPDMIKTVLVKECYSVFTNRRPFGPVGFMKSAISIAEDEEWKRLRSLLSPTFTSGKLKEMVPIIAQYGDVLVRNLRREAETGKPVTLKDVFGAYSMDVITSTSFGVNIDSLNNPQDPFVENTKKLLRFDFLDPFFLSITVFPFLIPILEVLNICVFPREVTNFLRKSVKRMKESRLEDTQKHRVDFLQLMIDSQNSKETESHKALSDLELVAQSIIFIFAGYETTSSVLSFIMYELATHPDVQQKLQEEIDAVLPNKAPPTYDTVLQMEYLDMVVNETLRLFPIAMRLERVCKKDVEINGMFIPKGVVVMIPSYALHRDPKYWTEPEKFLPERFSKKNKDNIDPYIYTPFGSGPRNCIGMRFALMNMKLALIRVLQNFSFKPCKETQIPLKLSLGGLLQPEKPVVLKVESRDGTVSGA
T3 sequence (P08684 whole entry): as above
T2 sequence (P33261 whole entry): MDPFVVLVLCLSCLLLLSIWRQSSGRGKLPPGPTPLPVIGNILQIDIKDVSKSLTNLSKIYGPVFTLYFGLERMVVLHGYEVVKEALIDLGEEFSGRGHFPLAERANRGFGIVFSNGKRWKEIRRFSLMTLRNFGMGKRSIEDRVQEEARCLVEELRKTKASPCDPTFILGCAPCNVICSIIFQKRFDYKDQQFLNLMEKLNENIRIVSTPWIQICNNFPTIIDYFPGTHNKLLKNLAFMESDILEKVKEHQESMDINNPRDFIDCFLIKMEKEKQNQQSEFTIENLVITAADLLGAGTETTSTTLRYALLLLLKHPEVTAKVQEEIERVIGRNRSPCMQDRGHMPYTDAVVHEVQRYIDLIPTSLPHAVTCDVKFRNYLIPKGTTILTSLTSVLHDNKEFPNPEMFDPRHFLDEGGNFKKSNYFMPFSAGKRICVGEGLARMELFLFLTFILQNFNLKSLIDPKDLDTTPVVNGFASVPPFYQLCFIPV

Structure (SMILES)	AUC(0-inf) [1]	Cmax [1]	Tmax [1]	MRT inf [1]	IC50 (CYP450 1A2)	IC50 (CYP450 2C19)	IC50 (CYP450 3A4-M)	IC50 (CYP450 3A4-T)
[2H]C([2H])(c1ccc(-c2ccccc2S(=O)(=O)Nc2noc(C)c2Cl)c(COCC)c1)N1C(=O)C2(CCCC2)N=C1CCCC [Example 2, 4'-((2-Butyl-4-oxo-1,3-diazaspiro[4.4]non-1-en-3-yl)methyl-d2)-N-(4-chloro-5-methylisoxazol-3-yl)-2'-(ethoxymethyl)-[1,1'-biphenyl]-2-sulfonamide]	10200 ng·h/mL	1690 ng/mL	0.5 h	8.4 h	> 100 µM	> 100 µM	14.7 µM	> 100 µM
CCCCC1=NC2(CCCC2)C(=O)N1Cc1ccc(-c2ccccc2S(=O)(=O)Nc2noc(C)c2Cl)c(COCC)c1 [Example 8, 2-[4-[(2-Butyl-4-oxo-1,3-diazaspiro[4.4]non-1-en-3-yl)methyl]-2-(ethoxymethyl)phenyl]-N-(4-chloro-5-methyl-isoxazol-3-yl)benzenesulfonamide]	16000 ng·h/mL	2140 ng/mL	0.5 h	8.6 h	> 100 µM	> 100 µM	24.9 µM	> 100 µM
